Measurements reported in patent US9573913B2, “Cathepsin cysteine protease inhibitors” (Merck Sharp & Dohme Corp., priority 2013, dated 2017).

Key:
human cathepsin K = human cathepsin K (UniProt P43236); assay: Cathepsin K Assay (hrbCat K); type: biochemical; details: Z-Leu-Arg-AMC substrate, pH 5.5, 15 min preincubation; read-out: hrbCat K (IP (nM))
Procedure, shortened: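 Human cathepsin K (0.4 nM) was preincubated 15 min at room temperature with compound in 50 mM MES pH 5.5, 2.5 mM EDTA, 2.5 mM DTT and 10% DMSO. Inhibition was fitted to a dose-response model.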

human cathepsin F = target: T1, human cathepsin F (Homo sapiens, UniProt Q9UBX1); assay: Cathepsin F assay (hCat F); type: biochemical; details: Z-Phe-Arg-AMC substrate, pH 5.5, 15 min preincubation; read-out: hCat F (IP (nM))
T1 sequence (Q9UBX1 271-484): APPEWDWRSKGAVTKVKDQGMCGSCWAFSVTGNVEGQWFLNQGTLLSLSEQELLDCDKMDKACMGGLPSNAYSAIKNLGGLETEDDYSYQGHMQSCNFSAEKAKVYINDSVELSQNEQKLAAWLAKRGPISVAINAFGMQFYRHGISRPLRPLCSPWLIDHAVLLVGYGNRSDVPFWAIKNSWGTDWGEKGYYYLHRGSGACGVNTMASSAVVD
Procedure, shortened: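 AMC release from Z-Phe-Arg-AMC, added at 8 μM, was monitored fluorometrically (360/460 nm) for 20 min after 10 nM enzyme and compound had been preincubated 15 min at room temperature. Buffer: MES 50 mM pH 5.5, EDTA and DTT 2.5 mM each, 10% DMSO. Compound DMSO dilutions spanned 500–0.025 μM (3-fold). Dose-response fitting gave % inhibition.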

Compound	IC50 (human cathepsin K)	IC50 (human cathepsin F)
N#CC(NC(=O)[C@@H]1CCCC[C@H]1c1nc(-c2ccc(F)cn2)sc1-c1ccc(N2CCS(=O)(=O)CC2)cc1)C1CCOCC1 (single isomer, unassigned) [Example 186, (1R,2R)-N-((S or R)-cyano(tetrahydro-2H-pyran-4-yl)methyl)-2-(5-(4-(1,1-dioxidothiomorpho-lino)phenyl)-2-(5-fluoropyridin-2-yl)thiazol-4-yl)cyclohexane-carboxamide]	1900 nM	≥ 10000 nM
C[C@@H](C#N)NC(=O)[C@@H]1C[C@@H](F)CC[C@H]1c1nc(-c2ccc(F)cn2)sc1-c1ccc(N2CCS(=O)(=O)CC2)cc1 [Example 130, (1R,2R,5S)-N-((S)-1-cyanoethyl)-2-(5-(4-(1,1-dioxidothiomorpho-lino)phenyl)-2-(5-fluoropyridin-2-yl)thiazol-4-yl)-5-fluorocyclohexane-carboxamide]	0.9 nM	1000 nM
N#CC1(NC(=O)[C@@H]2CC3CC3C[C@H]2c2nc(-c3ccc(F)cn3)sc2-c2ccc(N3CCS(=O)(=O)CC3)cc2)CC1 (single isomer, unassigned) [Example 105, (1R or 1S,3R,4R,6S or 6R)-N-(1-cyanocyclopropyl)-4-(5-(4-(1,1-dioxidothiomorpho-lino)phenyl)-2-(5-fluoropyridin-2-yl)thiazol-4-yl)bicyclo[4.1.0] heptane-3-carboxamide]	0.8 nM	371 nM
N#CC1(NC(=O)[C@@H]2CCCC[C@H]2c2nc(NS(=O)(=O)c3ccccc3)sc2-c2ccc(N3CCS(=O)(=O)CC3)cc2)CC1 [Example 200, (1R,2R)-N-(1-cyanocyclopropyl)-2-(5-(4-(1,1-dioxidothiomorpho-lino)phenyl)-2-(phenylsulfonamido)thiazol-4-yl)cyclohexane-carboxamide]	116 nM	≥ 10000 nM
N#CC1(NC(=O)[C@@H]2CCCC[C@H]2c2nc(-c3ccnc(C(F)(F)F)n3)sc2-c2ccc(N3CCS(=O)(=O)CC3)cc2)CC1 [Example 118, (1R,2R)-N-(1-cyanocyclopropyl)-2-(5-(4-(1,1-dioxidothiomorpho-lino)phenyl)-2-(2-(trifluoromethyl)pyrimidin-4-yl)thiazol-4-yl)cyclohexane-carboxamide]	59.4 nM	≥ 10000 nM
N#CC1(NC(=O)[C@@H]2CCCC[C@H]2c2nc(-c3cncc(Cl)c3)sc2-c2ccc(N3CCS(=O)(=O)C4(CC4)C3)cc2)CC1 [Example 76, (1R,2R)-2-(2-(5-chloropyridin-3-yl)-5-(4-(4,4-dioxido-4-thia-7-azaspiro[2.5]octan-7-yl)phenyl)thiazol-4-yl)-N-(1-cyanocyclopropyl) cyclohexanecarbox-amide]	1.8 nM	1000 nM
Cc1nc([C@@H]2CC[C@H](F)C[C@H]2C(=O)NC2(C#N)CC2)c(-c2ccc(N3CCC(C)(O)CC3)cc2)s1 [Example 242, (1R,2R,5S)-N-(1-cyanocyclopropyl)-5-fluoro-2-(5-(4-(4-hydroxy-4-methylpiperidin-1-yl)phenyl)-2-methylthiazol-4-yl)cyclohexane-carboxamide]	26.3 nM	≥ 10000 nM
N#CC1(NC(=O)[C@@H]2CCC(F)(F)C[C@H]2c2nc(-c3ccc(F)cc3)sc2-c2ccc(N3CCS(=O)(=O)CC3)cc2)CC1 [Example 78, (1R,2R)-N-(1-cyanocyclopropyl)-2-(5-(4-(1,1-dioxidothiomorpho-lino)phenyl)-2-(4-fluorophenyl)thiazol-4-yl)-4,4-difluorocyclohexane-carboxamide]	3.8 nM	3330 nM
Cc1nc([C@@H]2CC[C@H](F)C[C@H]2C(=O)N[C@@H](C)C#N)c(-c2ccc(N3CCC(C)(O)CC3)cc2)s1 [Example 241, (1R,2R,5S)-N-((S)-1-cyanoethyl)-5-fluoro-2-(5-(4-(4-hydroxy-4-methylpiperidin-1-yl)phenyl)-2-methylthiazol-4-yl)cyclohexane-carboxamide]	34.9 nM	≥ 10000 nM
Cc1ccc(-c2nc([C@@H]3CC[C@H](F)C[C@H]3C(=O)N[C@@H](C)C#N)c(-c3ccc(N4CCS(=O)(=O)CC4)cc3)s2)nn1 [Example 195, (1R,2R,5S)-N-((S)-1-cyanoethyl)-2-(5-(4-(1,1-dioxidothiomorpho-lino)phenyl)-2-(6-methylpyridazin-3-yl)thiazol-4-yl)-5-fluorocyclohexane-carboxamide]	1.4 nM	1940 nM
N#CC1(NC(=O)[C@@H]2CCCC[C@H]2c2nc(-c3ccc(F)cn3)sc2-c2ccc(N3CCS(=O)(=O)CC3)cc2)CC1 [Example 47, (1R,2R)-N-(1-cyanocyclopropyl)-2-(5-(4-(1,1-dioxidothiomorpho-lino)phenyl)-2-(5-fluoropyridin-2-yl)thiazol-4-yl)cyclohexane-carboxamide]	1.3 nM	1520 nM
N#CC1(NC(=O)[C@@H]2CCCC[C@H]2c2nc([C@@H]3CCCCO3)sc2-c2ccc(N3CCS(=O)(=O)CC3)cc2)CC1 [Example 149, (1R,2R)-N-(1-cyanocyclopropyl)-2-(5-(4-(1,1-dioxidothiomorpho-lino)phenyl)-2-((S)-tetrahydro-2H-pyran-2-yl)thiazol-4-yl)cyclohexane-carboxamide]	3.6 nM	7560 nM
N#CC1(NC(=O)[C@@H]2CCCC[C@H]2c2nc([C@@H]3CCOC3)sc2-c2ccc(N3CCS(=O)(=O)CC3)cc2)CC1 [Example 155, (1R,2R)-N-(1-cyanocyclopropyl)-2-(5-(4-(1,1-dioxidothiomorpho-lino)phenyl)-2-((R)-tetrahydrofuran-3-yl)thiazol-4-yl)cyclohexane-carboxamide]	4 nM	1000 nM
CC1(C)CC(c2nc([C@@H]3CCCC[C@H]3C(=O)NC3(C#N)CC3)c(-c3ccc(N4CCS(=O)(=O)CC4)cc3)s2)CC(C)(C)O1 [Example 93, (1R,2R)-N-(1-cyanocyclopropyl)-2-(5-(4-(1,1-dioxidothiomorpho-lino)phenyl)-2-(2,2,6,6-tetramethyltetrahydro-2H-pyran-4-yl)thiazol-4-yl)cyclohexane-carboxamide]	14.1 nM	≥ 10000 nM
N#CC1(NC(=O)[C@@H]2CC(F)(F)CC[C@H]2c2nc(-c3ccc(F)cc3)sc2-c2ccc(C(=O)N3CCOCC3)cc2)CC1 [Example 28, (1R,2R)-N-(1-cyanocyclopropyl)-5,5-difluoro-2-(2-(4-fluorophenyl)-5-(4-(morpholine-4-carbonyl)phenyl)thi-azol-4-yl)cyclohexane-carboxamide]	2.3 nM	63 nM
